Measurements taken from paper PMC10795796 (Biochemistry, 2023).

Target: T1, TIR domain of TIR-1 (Caenorhabditis elegans, UniProt Q86DA5)
T1 sequence (Q86DA5 707-930): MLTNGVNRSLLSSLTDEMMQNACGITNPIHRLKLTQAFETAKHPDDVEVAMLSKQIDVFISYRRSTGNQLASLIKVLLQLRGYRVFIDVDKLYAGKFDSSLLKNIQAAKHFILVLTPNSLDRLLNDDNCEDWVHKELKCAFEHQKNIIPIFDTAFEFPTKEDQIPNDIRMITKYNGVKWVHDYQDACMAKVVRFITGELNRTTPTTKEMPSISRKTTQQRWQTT
Assay: direct fluorescent base exchange assay
Format: biochemical
Conditions: […] °C

| Structure (SMILES) | Km ([…] PC6 (saturating), […] PEG […] Tris pH […] NaCl) [µM] | Km ([…] NAD+ (saturating), […] PEG […] Tris pH […] NaCl) [µM] |
| --- | --- | --- |
| NC(=O)c1ccc[n+]([C@@H]2O[C@H](COP(=O)(O)OP(=O)(O)OC[C@H]3O[C@@H](n4cnc5c(N)ncnc54)[C@H](O)[C@@H]3O)[C@@H](O)[C@H]2O)c1 [NAD^+] | 630 | – |
| CCOc1ccc(/C=C/c2ccncc2)cc1 [PC6] | – | 165 |
